Assay results: patent publication US20240408062A1 (Purdue Research Foundation, priority 2022, published 2024)

target: SARS-CoV-2 3CLpro (Severe acute respiratory syndrome coronavirus 2, UniProt P0DTD1); experiment: Inhibition of SARS-CoV-2 3CLpro, continuous fluorescence assay with FRET-based substrate UIVT3; format: biochemical; conditions: FRET substrate UIVT3, 50-200 nM enzyme, pH 7.5, 25° C.
Experimental: Kinetic assays were performed in Costar 3694 EIA/RIA 96-well half-area, flat bottom, black polystyrene plates (Corning, Corning, NY) at 25° C. The increase in fluorescence intensity was measured at an emission wavelength of 528 nm (20 nm bandwidth) using an excitation wavelength of 485 (bandwidth 20 nm) using a CLARIOstar Plate Reader (BMG Labtech, Cary, NC). The initial rates of the reactions were determined from the slopes of the Relative Fluorescence Units (RFU) versus time (RFU min^−1). Inhibition data were collected and analyzed as described previously.

Compound | Activity of SARS-CoV-2 Mpro inhibitors
COc1cccc2[nH]c(C(=O)N[C@@H](CC(C)C)C(=O)N[C@@H](C[C@@H]3CCNC3=O)C(=O)C(=O)c3ccccc3)cc12 [Compound 1] | A++ (A++ < 1 μM)
CC(C)C[C@@H](C(=O)N[C@@H](C[C@@H]1CCNC1=O)C(=O)C(=O)c1ccccc1)N(C)C(=O)[C@@H](NC(=O)C(F)(F)F)C(C)(C)C [Compound 2] | A+ (A+ < 10 μM)
CC(C)C[C@@H](C(=O)N[C@@H](CC1CCCNC1=O)C(=O)C(=O)c1ccccc1)N(C)C(=O)[C@@H](NC(=O)C(F)(F)F)C(C)(C)C (some centres unmarked) [Compound 5] | A++ (A++ < 1 μM)
CN(C(=O)[C@@H](NC(=O)C(F)(F)F)C(C)(C)C)[C@H](CC1CCCC1)C(=O)NC(C[C@@H]1CCNC1=O)C(=O)C(=O)c1ccccc1 (some centres unmarked) [Compound 3] | A+ (A+ < 10 μM)
CC(C)C[C@H](CC(=O)[C@@H](NC(=O)C(F)(F)F)C(C)(C)C)C(=O)N[C@@H](C[C@@H]1CCNC1=O)C(=O)C(=O)c1ccccc1 [Compound 4] | A++ (A++ < 1 μM)
